The source of these data is ChEMBL document CHEMBL1909046, “DrugMatrix in vitro pharmacology data”.

One data set addresses Cytochrome P450 2C19 (Homo sapiens, UniProt P33261). The note with it: bti-tn-5b1-4.
In data set [1] the target is T1, 3-hydroxy-3-methylglutaryl-coenzyme A reductase (Homo sapiens, UniProt P04035).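 Further: enzyme inhibition assay of HMG-CoA reductase using radiolabeled [14C]HMG-CoA as substrate; in other assays of this panel Not Active means under 50% inhibition at 10 µM.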
T1 sequence (P04035 whole entry): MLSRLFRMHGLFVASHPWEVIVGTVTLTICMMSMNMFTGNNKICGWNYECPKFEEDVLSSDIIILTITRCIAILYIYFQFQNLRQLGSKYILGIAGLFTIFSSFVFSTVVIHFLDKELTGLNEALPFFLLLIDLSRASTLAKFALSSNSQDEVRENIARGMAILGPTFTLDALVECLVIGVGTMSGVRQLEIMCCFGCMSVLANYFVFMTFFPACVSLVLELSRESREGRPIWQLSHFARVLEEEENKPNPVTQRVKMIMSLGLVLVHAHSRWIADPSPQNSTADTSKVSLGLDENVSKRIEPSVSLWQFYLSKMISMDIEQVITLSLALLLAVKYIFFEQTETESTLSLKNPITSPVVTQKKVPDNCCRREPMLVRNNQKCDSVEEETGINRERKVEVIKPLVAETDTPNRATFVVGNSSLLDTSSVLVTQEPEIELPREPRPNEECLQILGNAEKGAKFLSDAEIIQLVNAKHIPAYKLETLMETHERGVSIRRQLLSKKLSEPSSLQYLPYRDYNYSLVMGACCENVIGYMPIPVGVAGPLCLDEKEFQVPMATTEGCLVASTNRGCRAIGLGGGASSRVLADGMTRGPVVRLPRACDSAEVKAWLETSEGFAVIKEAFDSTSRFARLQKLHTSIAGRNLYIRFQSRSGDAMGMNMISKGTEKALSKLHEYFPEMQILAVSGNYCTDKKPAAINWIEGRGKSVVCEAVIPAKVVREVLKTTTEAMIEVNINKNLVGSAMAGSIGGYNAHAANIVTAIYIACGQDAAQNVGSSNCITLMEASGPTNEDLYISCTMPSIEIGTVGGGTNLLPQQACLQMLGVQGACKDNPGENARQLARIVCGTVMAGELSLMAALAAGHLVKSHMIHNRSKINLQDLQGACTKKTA
On the set-up: species or system Escherichia coli.

Data set [2] concerns the target T2, Alpha-1B adrenergic receptor (Rattus norvegicus, UniProt P15823).
T2 sequence (P15823 whole entry): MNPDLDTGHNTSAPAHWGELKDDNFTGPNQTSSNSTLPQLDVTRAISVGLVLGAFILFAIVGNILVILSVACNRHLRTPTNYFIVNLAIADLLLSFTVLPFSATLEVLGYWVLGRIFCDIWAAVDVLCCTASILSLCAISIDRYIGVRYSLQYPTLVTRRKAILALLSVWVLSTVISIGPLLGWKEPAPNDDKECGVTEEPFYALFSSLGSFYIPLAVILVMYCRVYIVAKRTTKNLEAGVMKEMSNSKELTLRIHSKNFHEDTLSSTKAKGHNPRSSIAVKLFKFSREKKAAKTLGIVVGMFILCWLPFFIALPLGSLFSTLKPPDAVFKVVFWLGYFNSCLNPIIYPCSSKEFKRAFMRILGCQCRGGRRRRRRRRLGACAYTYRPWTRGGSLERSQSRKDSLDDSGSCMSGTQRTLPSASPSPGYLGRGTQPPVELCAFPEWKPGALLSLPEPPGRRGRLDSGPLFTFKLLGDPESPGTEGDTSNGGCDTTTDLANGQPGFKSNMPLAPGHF
In words: DRUGMATRIX: Alpha-1B adrenergic receptor radioligand binding (ligand: prazosin). It counts as cell membranes, Wistar, Liver, Membrane. The note with it: Not Active = under 50% inhibition at 10 µM.

Data set [3] in a line: DRUGMATRIX: Atrial Natriuretic Factor (ANF) radioligand binding (ligand: [125I] ANF (rat)). The class given is cell membranes, Cavia porcellus, Dunkin-Hartley, Adrenal gland, Membrane. The conditions noted are these: Not Active = under 50% inhibition at 10 µM.
The target of the next data set is T3, Endothelin-1 receptor (Homo sapiens, UniProt P25101). Further: in other assays of this panel Not Active means under 50% inhibition at 10 µM.
T3 sequence (P25101 whole entry): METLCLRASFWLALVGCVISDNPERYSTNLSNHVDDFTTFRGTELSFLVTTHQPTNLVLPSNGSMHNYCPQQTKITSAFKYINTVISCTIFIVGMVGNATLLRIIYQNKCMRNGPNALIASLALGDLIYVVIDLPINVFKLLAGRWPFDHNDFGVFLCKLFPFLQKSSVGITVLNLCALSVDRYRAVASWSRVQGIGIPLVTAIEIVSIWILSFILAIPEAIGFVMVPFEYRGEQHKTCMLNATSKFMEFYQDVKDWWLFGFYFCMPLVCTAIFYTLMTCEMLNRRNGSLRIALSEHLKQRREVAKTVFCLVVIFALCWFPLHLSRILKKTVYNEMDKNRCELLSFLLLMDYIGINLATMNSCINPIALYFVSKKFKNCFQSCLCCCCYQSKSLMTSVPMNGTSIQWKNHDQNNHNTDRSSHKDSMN
It counts as cell membranes, Membrane. The conditions noted are these: cho-k1.

Data set [4] addresses Matrix metalloproteinase-9 (Homo sapiens, UniProt P14780). It counts as cell-based.
Data set [5] addresses T4, Muscarinic acetylcholine receptor M4 (Homo sapiens, UniProt P08173).
T4 sequence (P08173 whole entry): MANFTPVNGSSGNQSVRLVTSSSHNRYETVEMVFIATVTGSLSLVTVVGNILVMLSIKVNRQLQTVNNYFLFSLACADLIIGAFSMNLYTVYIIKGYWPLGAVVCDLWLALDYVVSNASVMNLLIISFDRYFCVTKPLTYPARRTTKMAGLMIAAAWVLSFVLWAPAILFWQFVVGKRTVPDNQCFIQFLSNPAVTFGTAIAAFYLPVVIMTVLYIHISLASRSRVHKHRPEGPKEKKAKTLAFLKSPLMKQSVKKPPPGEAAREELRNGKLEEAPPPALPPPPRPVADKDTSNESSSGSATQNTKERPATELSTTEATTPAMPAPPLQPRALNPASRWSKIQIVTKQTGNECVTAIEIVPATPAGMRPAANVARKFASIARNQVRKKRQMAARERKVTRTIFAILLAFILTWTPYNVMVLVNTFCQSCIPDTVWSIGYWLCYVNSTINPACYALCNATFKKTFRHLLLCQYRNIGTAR
It counts as cell membranes, CHO-K1, Membrane.

Chain of Matrix metalloproteinase-9 (P14780 whole entry): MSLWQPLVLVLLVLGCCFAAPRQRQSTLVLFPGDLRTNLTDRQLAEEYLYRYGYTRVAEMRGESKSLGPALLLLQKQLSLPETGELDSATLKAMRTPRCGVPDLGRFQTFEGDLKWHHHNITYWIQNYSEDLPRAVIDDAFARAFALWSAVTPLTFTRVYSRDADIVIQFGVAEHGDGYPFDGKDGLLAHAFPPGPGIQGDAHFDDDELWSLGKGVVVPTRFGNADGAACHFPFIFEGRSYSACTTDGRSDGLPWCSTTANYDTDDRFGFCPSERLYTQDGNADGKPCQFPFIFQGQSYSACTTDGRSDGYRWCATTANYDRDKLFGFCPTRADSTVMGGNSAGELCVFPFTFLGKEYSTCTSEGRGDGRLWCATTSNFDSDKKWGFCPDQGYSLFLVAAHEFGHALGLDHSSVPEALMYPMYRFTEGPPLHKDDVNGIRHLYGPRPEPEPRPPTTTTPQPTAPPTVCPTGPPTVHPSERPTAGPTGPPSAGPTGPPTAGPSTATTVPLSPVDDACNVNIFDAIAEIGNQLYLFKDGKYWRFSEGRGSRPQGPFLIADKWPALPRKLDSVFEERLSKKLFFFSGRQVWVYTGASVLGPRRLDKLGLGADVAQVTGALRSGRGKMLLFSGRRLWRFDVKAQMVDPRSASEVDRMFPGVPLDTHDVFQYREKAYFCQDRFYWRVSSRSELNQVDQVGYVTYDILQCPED
Chain of Cytochrome P450 2C19 (P33261 whole entry): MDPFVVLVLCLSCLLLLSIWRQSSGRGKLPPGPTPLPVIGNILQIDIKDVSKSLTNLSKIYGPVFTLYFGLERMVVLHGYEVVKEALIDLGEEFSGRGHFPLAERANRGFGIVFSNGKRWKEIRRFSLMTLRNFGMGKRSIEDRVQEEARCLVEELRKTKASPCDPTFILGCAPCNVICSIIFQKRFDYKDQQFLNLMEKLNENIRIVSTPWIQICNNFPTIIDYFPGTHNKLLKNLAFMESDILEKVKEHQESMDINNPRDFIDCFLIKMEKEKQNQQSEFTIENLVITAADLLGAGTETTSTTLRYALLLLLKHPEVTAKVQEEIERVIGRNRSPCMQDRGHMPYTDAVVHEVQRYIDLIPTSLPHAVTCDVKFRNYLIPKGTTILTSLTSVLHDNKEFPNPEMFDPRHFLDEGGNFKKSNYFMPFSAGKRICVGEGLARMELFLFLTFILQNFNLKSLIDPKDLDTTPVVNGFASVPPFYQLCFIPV

Broadly, the IC50 is the concentration needed to halve the response being measured. What is called Ki is a dissociation constant, usually derived from enzyme kinetics or from competition with a known ligand. For the molecule `CCC1(c2ccccc2)C(=O)NC(=O)NC1=O` [PHENOBARBITAL], the IC50 result (against Cytochrome P450 2C19; in data set [1]; in data set [2]; in data set [3]; at Endothelin-1 receptor; in data set [4]) was “Not Active” throughout. The IC50 result in data set [5] (cho-k1) is reported as “Not Active”. The inhibition constant (Ki) entry (on Cytochrome P450 2C19; in data set [3]) was “Not Active” in each case.
On to `Oc1ccccc1` [PHENOL], for which the IC50 result (on Cytochrome P450 2C19; in data set [1]; in data set [2]; in data set [3]; at Endothelin-1 receptor; in data set [4]) was “Not Active” throughout. For the same molecule, in data set [5] (cho-k1), the IC50 entry is given as “Not Active”. Also, the Ki result (on Cytochrome P450 2C19; in data set [3]) was “Not Active” in each case.
Regarding `c1ccc2c(c1)Nc1ccccc1S2` [PHENOTHIAZINE], the IC50 result (on Cytochrome P450 2C19; in data set [1]; in data set [2]; in data set [3]; at Endothelin-1 receptor; in data set [4]) was “Not Active” each time. In addition, the concentration for half-maximal inhibition (IC50) entry in data set [5] (cho-k1) was “Not Active”. Besides, the Ki entry (at Cytochrome P450 2C19; in data set [3]) was “Not Active” throughout.
As to `CCN1CCN(C(=O)N[C@@H](C(=O)N[C@@H]2C(=O)N3[C@@H]2SC(C)(C)[C@@H]3C(=O)O)c2ccccc2)C(=O)C1=O` [PIPERACILLIN], the IC50 entry (at Cytochrome P450 2C19; in data set [1]; in data set [2]; in data set [3]; on Endothelin-1 receptor; in data set [4]) was “Not Active” throughout. In data set [5] (cho-k1), the IC50 entry was “Not Active”. The Ki entry (at Cytochrome P450 2C19; in data set [3]) was “Not Active” each time.
As to `COc1cc(NC(C)CCCN)c2ncccc2c1` (stereo unspecified) [PRIMAQUINE], the IC50 result (against Cytochrome P450 2C19; in data set [1]; in data set [2]; in data set [3]; against Endothelin-1 receptor; in data set [4]) was “Not Active” each time. Also, in data set [5] (cho-k1), the half-inhibitory concentration (IC50) result is listed as “Not Active”. Besides, the Ki result (at Cytochrome P450 2C19; in data set [3]) was “Not Active” each time.
Take `CC(CN1c2ccccc2Sc2ccccc21)N(C)C` (stereo unspecified) [PROMETHAZINE]: the IC50 entry was “Not Active” against Cytochrome P450 2C19; “Not Active” in data set [1]; 39 nM in data set [2] (read-out: IC50); “Not Active” in data set [3]; “Not Active” against Endothelin-1 receptor; “Not Active” in data set [4]. The IC50 in data set [5] (read-out: IC50) is 7.58 nM. The inhibition constant Ki entry was “Not Active” on Cytochrome P450 2C19, 21 nM in data set [2] (read-out: Ki), “Not Active” in data set [3] and 1.06 nM in data set [5] (read-out: Ki).
For the molecule `COc1ccc(C[C@H](N)C(=O)N[C@H]2[C@@H](O)[C@H](n3cnc4c(N(C)C)ncnc43)O[C@@H]2CO)cc1` [PUROMYCIN], the half-maximal inhibitory concentration (IC50) result (on Cytochrome P450 2C19; in data set [1]; in data set [2]; in data set [3]; against Endothelin-1 receptor; in data set [4]) was “Not Active” in each case. Besides, the half-maximal inhibitory concentration (IC50) result in data set [5] (cho-k1) is “Not Active”. The inhibition constant Ki result (at Cytochrome P450 2C19; in data set [3]) was “Not Active” in each case.
Take CARBOXYMETHYLCELLULOSE: the IC50 result (against Cytochrome P450 2C19; in data set [1]; in data set [2]; in data set [3]; against Endothelin-1 receptor; in data set [4]) was “Not Active” each time. In data set [5] (cho-k1), the concentration for half-maximal inhibition (IC50) entry is “Not Active”. For the same molecule, the Ki entry (on Cytochrome P450 2C19; in data set [1]; in data set [2]; in data set [3]; on Endothelin-1 receptor; in data set [4]) was “Not Active” each time. The inhibitory constant (Ki) entry in data set [5] (cho-k1) is given as “Not Active”.
CHROMIC CHLORIDE: the half-inhibitory concentration (IC50) result (against Cytochrome P450 2C19; in data set [1]; in data set [2]; in data set [3]; at Endothelin-1 receptor; in data set [4]) was “Not Active” in each case. Moreover, the IC50 entry in data set [5] (cho-k1) is “Not Active”. For the same molecule, the inhibition constant (Ki) entry (at Cytochrome P450 2C19; in data set [1]; in data set [2]; in data set [3]; on Endothelin-1 receptor; in data set [4]) was “Not Active” throughout. Besides, in data set [5] (cho-k1), the inhibition constant (Ki) entry is listed as “Not Active”.
Consider COPPER(II) OXIDE, for which the IC50 entry (against Cytochrome P450 2C19; in data set [1]; in data set [2]; in data set [3]; on Endothelin-1 receptor; in data set [4]) was “Not Active” in each case. Further, in data set [5] (cho-k1), the IC50 result is given as “Not Active”. The Ki result (on Cytochrome P450 2C19; in data set [1]; in data set [2]; in data set [3]; at Endothelin-1 receptor; in data set [4]) was “Not Active” in each case. Besides, the inhibition constant Ki result in data set [5] (cho-k1) is “Not Active”.
Regarding POVIDONE, the half-inhibitory concentration (IC50) entry (against Cytochrome P450 2C19; in data set [1]; in data set [2]; in data set [3]; against Endothelin-1 receptor; in data set [4]) was “Not Active” in each case. The IC50 result in data set [5] (cho-k1) is recorded as “Not Active”. For the same molecule, the Ki result (on Cytochrome P450 2C19; in data set [1]; in data set [2]; in data set [3]; on Endothelin-1 receptor; in data set [4]) was “Not Active” in each case. Further, the Ki result in data set [5] (cho-k1) is recorded as “Not Active”.
